Data on four compounds can be found in patent US7531546B2, “Spiro-substituted pyrrolo[2,3-D]pyrimidines as cathepsin inhibitors” (Novartis AG, priority 2003, dated 2009).

pIC50: −log10 of the molar value.

For assay [1], the target named is T1, recombinant human cathepsin K (Homo sapiens, UniProt P43235).
T1 sequence (P43235 115-329): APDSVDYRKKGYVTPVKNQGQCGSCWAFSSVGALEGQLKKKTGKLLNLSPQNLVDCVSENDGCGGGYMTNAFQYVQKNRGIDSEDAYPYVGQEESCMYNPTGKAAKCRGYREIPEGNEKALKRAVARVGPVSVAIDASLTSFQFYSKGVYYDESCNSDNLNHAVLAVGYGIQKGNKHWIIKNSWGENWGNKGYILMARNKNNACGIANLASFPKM
The assay is described as follows: in vitro inhibition of recombinant human cathepsin K. Particulars: recombinant enzyme, substrate Z-Phe-Arg-AMCA, pH 7.0, 30 min preincubation, fluorescence readout. The format is biochemical. On the procedure:
The in vitro assay is carried out as follows:
The assay is performed in 96 well microtiter plates at ambient temperature using recombinant human cathepsin K. Inhibition of cathepsin K is assayed at a constant enzyme (0.16 nM) and substrate concentration ([…] Z-Phe-Arg-AMCA—Peptide Institute Inc. Osaka, Japan) in 100 mM sodium phosphate buffer, pH 7.0, containing 2 mM dithiothreitol, 20 mM Tween 80 and 1 mM EDTA. Cathepsin K is preincubated with the inhibitors for 30 min, and the reaction is initiated by the addition of substrate. After 30 min incubation the reaction is stopped by the addition of E-64 (2 mM), and fluorescence intensity is read on a multi-well plate reader at excitation and emission wavelengths of 360 and 460 nm, respectively.

Assay [2] deals with recombinant human cathepsin S (Homo sapiens, UniProt P25774). The assay is described as follows: in vitro inhibition of recombinant human cathepsin S. The settings on record: recombinant enzyme 0.04 nM, substrate Z-Leu-Leu-4-methylcoumaryl-7-amide, pH 7.0, fluorescence readout. The format is biochemical. The procedure:
The in vitro assay is carried out in clear, flat-bottomed, 96-well microtiter plates (Greiner GmbH, Germany) at ambient temperature using recombinant human cathepsin S. Inhibition of human cathepsin S is assayed at a constant enzyme and various substrate concentrations (substrate is Z-Leu-Leu-4-methylcoumaryl-7-amide (Bachem (Switzerland)) in 100 parts 0.2M sodium phosphate, pH 7.0, containing 2 mM EDTA, 2 parts 1% Triton X-100, 10 parts 20 mM dithiothreitol (DTT) and 58 parts distilled water. The assay is started by adding the enzyme solution (13 times higher concentration of final concentration of recombinant human Cathepsin S) to the reaction mixture containing various concentrations of the corresponding substrate and the compound. Substrate concentrations between 3.4 and 17 μM are used. The recombinant human Cathepsin S is used at a final concentration of 0.04 nM. Test compounds are used at concentrations between 0.4 and 2 times the determined IC50 of the compound at the enzyme. The relative fluorescence is continuously measured for 30 minutes and the initial velocity is obtained from each progress curve. […]

As a reminder, the pIC50 is the negative decadic logarithm of the IC50, by convention in mol/L.

Chain of recombinant human cathepsin S (P25774 115-331): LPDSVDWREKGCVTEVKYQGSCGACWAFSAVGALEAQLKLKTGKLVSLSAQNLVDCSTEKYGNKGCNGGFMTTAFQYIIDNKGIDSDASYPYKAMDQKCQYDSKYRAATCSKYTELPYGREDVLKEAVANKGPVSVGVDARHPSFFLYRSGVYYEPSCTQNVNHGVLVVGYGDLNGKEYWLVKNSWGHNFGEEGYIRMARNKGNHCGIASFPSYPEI

`CC(C)(C)Cn1c(CN2C(=O)CC3(CCNCC3)C2=O)cc2cnc(C#N)nc21` [Example 3-0, 7-(2,2-Dimethyl-propyl)-6-(1,3-dioxo-2,8-diaza-spiro[4.5]dec-2-ylmethyl)-7H-pyrrolo[2,3-d]pyrimidine-2-carbonitrile]: in assay [1], the pIC50 was about 9.80.
On to `CC(=O)N1CCC2(CC1)C(=O)N(Cc1cc3cnc(C#N)nc3n1CCC(C)(C)C)c1ccccc12` [Example 4-9], for which the results for the pIC50 in assay [1] and in assay [2] were 7.80 and 8.00, respectively.
In the case of `CC(C)(C)CCn1c(CN2CCC3(CCN(S(C)(=O)=O)CC3)C2)cc2cnc(C#N)nc21` [Example 4-3], the pIC50 in assay [1] is 8.10; in assay [2], 8.22.
`CC(=O)N1CCC2(CC1)C(=O)N(Cc1cc3cnc(C#N)nc3n1CCC1CCCCC1)c1ccccc12` [Example 4-8]: the pIC50 in assay [2] was about 8.05.
